Test results published in patent US20130323284A1, “USE OF mTOR INHIBITORS TO TREAT BACTERIAL INFECTION” (JAZZYA INVESTMENTS, priority 2012, published 2013).

Tested on: CYLD
Assay: Immunoblot analysis of CYLD levels in Klebsiella pneumoniae infected cells
Format: cell-based
Settings: U0126 10 mM; infected for 3 h; versus vehicle control
Procedure: An immunoblot analysis of CYLD levels in Klebsiella pneumoniae infected cells for 3 h in the presence of vehicle control (Kp) or PI3K inhibitor (LY294002, […]), AKT inhibitor ([…]), ERK inhibitor (U0126, […]) is shown. Membranes were reprobed for tubulin as a loading control.

N#CC(=C(/N)Sc1ccccc1N)/C(C#N)=C(\N)Sc1ccccc1N [U0126]
Klebsiella pneumoniae induced production of CYLD in the presence of inhibitor: PI3K-AKT-ERK dependent manner
